Experimental data as given in patent US10980232B2, “Herbicidal composition comprising cinmethylin and pyroxasulfone” (BASF Agro B.V., priority 2015, dated 2021).

Columns and labels:
Type in all cases: in vivo
STEME (Stellaria media) [1] = assay: Greenhouse preemergence herbicidal activity, STEME; details: 20 DAT
Description: (§1) The test plants have been seeded, separately for each species, in plastic containers in sandy loamy soil containing 5% of organic matter.
(§2) The containers were irrigated gently to promote germination and growth and subsequently covered with transparent plastic hoods until the plants had rooted.
(§3) The plants have been cultivated due to their individual requirements at 10-25° C. and 20-35° C. The plants were irrigated due to their necessity.
(§4) The racemic mixture (±)-2-exo-(2-Methylbenzyloxy)-1-methyl-4-isopropyl-7-oxabicyclo[2.2.1]heptane was used as herbicide A and formulated as emulsifiable concentrates with an active ingredient concentration of 50 g/l, 100 g/l or 750 g/l respectively.
(§5) Pyroxasulfone (herbicide B) was used as a water dispersible granule (85% WG).
(§6) In the following experiments, the herbicidal activity for the individual herbicidal compositions (solo and mixture applications) was assessed 20 days after treatment (DAT).
(§7) The evaluation for the damage on undesired weeds caused by the chemical compositions was carried out using a scale from 0 to 100%, compared to the untreated control plants. Here, 0 means no damage and 100 means complete destruction of the plants.
(§8) E=X+Y−(X·Y/100) where X=effect in percent using herbicide A at an application rate a; • Y=effect in percent using herbicide B at application rate b; • E=expected effect (in %) of herbicide A+herbicide B at application rates a+b.
(§9) The value E corresponds to the effect (plant damage or injury) which is to be expected if the activity of the individual compounds is additive. If the observed effect is higher than the value E calculated according to the Colby equation, a synergistic effect is present.

[2] = system: AMARE (Amaranthus retroflexus); assay: Greenhouse preemergence herbicidal activity, AMARE; details: herbicide A solo 25 g ai/ha, 20 DAT
Description: as §1, §2, §3, §4, §5, §6
The evaluation for the damage on undesired weeds caused by the chemical compositions was carried out using a scale from 0 to 100%, compared to the untreated control plants. […]
as §9

[3] = system: AMARE (Amaranthus retroflexus); assay: Greenhouse postemergence herbicidal activity, AMARE; details: herbicide A solo 250 g ai/ha, 20 DAT
Description: as §1
(§10) For the post emergence treatment, the plants were first grown to the 2 leaf station (GS 12). Here, the herbicidal compositions were suspended or emulsified in water as distribution medium and sprayed using finely distributing nozzels.
as §3, §4, §5
(§11) In the following experiments, the herbicidal activity for the individual herbicidal compositions (solo and mixture applications) was assessed 20 days after treatment (DAT). […]
as §9

[4] = system: POLCO (Polygonum convolvulus); assay: Greenhouse postemergence herbicidal activity, POLCO; details: herbicide A solo 250 g ai/ha, 20 DAT
Description: as §1, §10, §3, §4, §5, §11, §9

[5] = system: CHEAL (Chenopodium album); assay: Greenhouse postemergence herbicidal activity, CHEAL; details: 20 DAT
Description: as §1, §10, §3, §4, §5, §6, §7, §8, §9

[6] = system: SORHA (Sorghum halepense); assay: Greenhouse postemergence herbicidal activity, SORHA; details: herbicide A solo 62.5 g ai/ha, 20 DAT
Description: as §1, §10, §3, §4, §5, §11, §9

[7] = system: CHEAL (Chenopodium album); assay: Greenhouse preemergence herbicidal activity, CHEAL; details: 20 DAT
Description: as §1, §2, §3, §4, §5, §6, §7, §8, §9

[8] = system: ABUTH (Abutilon theoprasti); assay: Greenhouse preemergence herbicidal activity, ABUTH; details: 20 DAT
Description: as §1, §2, §3, §4, §5, §6, §7, §8, §9

[9] = system: POLCO (Polygonum convolvulus); assay: Greenhouse preemergence herbicidal activity, POLCO; details: 20 DAT
Description: as §1, §2, §3, §4, §5, §6, §7, §8, §9

[10] = system: ANTAR (Anthemis arvensis); assay: Greenhouse postemergence herbicidal activity, ANTAR; details: 20 DAT
Description: as §1, §10, §3, §4, §5, §6, §7, §8, §9

GALAP (Galium aparine) = assay: Greenhouse preemergence herbicidal activity, GALAP; details: 20 DAT
Description: as §1, §2, §3, §4, §5, §6, §7, §8, §9

[11] = system: ANTAR (Anthemis arvensis); assay: Greenhouse preemergence herbicidal activity, ANTAR; details: 20 DAT
Description: as §1, §2, §3, §4, §5, §6, §7, §8, §9

[12] = system: LOLMU (Lolium multiflorum); assay: Greenhouse preemergence herbicidal activity, LOLMU; details: 20 DAT
Description: as §1, §2, §3, §4, §5, §6, §7, §8, §9

AVEFA (Avena fatua) [13] = assay: Greenhouse postemergence herbicidal activity, AVEFA; details: 20 DAT
Description: as §1, §10, §3, §4, §5, §6, §7, §8, §9

[14] = system: LOLMU (Lolium multiflorum); assay: Greenhouse postemergence herbicidal activity, LOLMU; details: 20 DAT
Description: as §1, §10, §3, §4, §5, §6, §7, §8, §9

STEME (Stellaria media) [15] = assay: Greenhouse postemergence herbicidal activity, STEME; details: 20 DAT
Description: as §1, §10, §3, §4, §5, §6, §7, §8, §9

[16] = system: GERDI (Geranium dissectum); assay: Greenhouse preemergence herbicidal activity, GERDI; details: 20 DAT
Description: as §1, §2, §3, §4, §5, §6, §7, §8, §9

AVEFA (Avena fatua) [17] = assay: Greenhouse preemergence herbicidal activity, AVEFA; details: 20 DAT
Description: as §1, §2, §3, §4, §5, §6, §7, §8, §9

Cc1ccccc1CO[C@@H]1C[C@@]2(C(C)C)CC[C@]1(C)O2 (racemic) [herbicide A, (±)-2-exo-(2-Methylbenzyloxy)-1-methyl-4-isopropyl-7-oxabicyclo[2.2.1]heptane]
herbicidal activity (STEME (Stellaria media) [1]; herbicide A solo 25 g ai/ha): 20%
herbicidal activity (STEME (Stellaria media) [1]; herbicide A solo 37.5 g ai/ha): 0%
herbicidal activity (STEME (Stellaria media) [1]; herbicide A solo 50 g ai/ha): 20%
herbicidal activity (STEME (Stellaria media) [1]; herbicide A solo 75 g ai/ha): 20%
herbicidal activity [2]: 0%
herbicidal activity [3]: 25%
herbicidal activity [4]: 40%
herbicidal activity ([5]; herbicide A solo 62.5 g ai/ha): 30%
herbicidal activity ([5]; herbicide A solo 87.5 g ai/ha): 65%
herbicidal activity ([5]; herbicide A solo 125 g ai/ha): 50%
herbicidal activity ([5]; herbicide A solo 175 g ai/ha): 60%
herbicidal activity ([5]; herbicide A solo 500 g ai/ha): 75%
herbicidal activity [6]: 40%
herbicidal activity ([7]; herbicide A solo 25 g ai/ha): 20%
herbicidal activity ([7]; herbicide A solo 37.5 g ai/ha): 20%
herbicidal activity ([7]; herbicide A solo 50 g ai/ha): 30%
herbicidal activity ([7]; herbicide A solo 75 g ai/ha): 20%
herbicidal activity ([8]; herbicide A solo 37.5 g ai/ha): 0%
herbicidal activity ([8]; herbicide A solo 75 g ai/ha): 0%
herbicidal activity ([8]; herbicide A solo 150 g ai/ha): 0%
herbicidal activity ([8]; herbicide A solo 300 g ai/ha): 0%
herbicidal activity ([9]; herbicide A solo 37.5 g ai/ha): 0%
herbicidal activity ([9]; herbicide A solo 50 g ai/ha): 0%
herbicidal activity ([9]; herbicide A solo 75 g ai/ha): 0%
herbicidal activity ([9]; herbicide A solo 100 g ai/ha): 0%
herbicidal activity ([9]; herbicide A solo 200 g ai/ha): 0%
herbicidal activity ([9]; herbicide A solo 300 g ai/ha): 0%
herbicidal activity ([10]; herbicide A solo 62.5 g ai/ha): 40%
herbicidal activity ([10]; herbicide A solo 175 g ai/ha): 90%
herbicidal activity ([10]; herbicide A solo 250 g ai/ha): 90%
herbicidal activity (GALAP (Galium aparine); herbicide A solo 25 g ai/ha): 0%
herbicidal activity (GALAP (Galium aparine); herbicide A solo 50 g ai/ha): 0%
herbicidal activity (GALAP (Galium aparine); herbicide A solo 200 g ai/ha): 30%
herbicidal activity (GALAP (Galium aparine); herbicide A solo 300 g ai/ha): 30%
herbicidal activity ([11]; herbicide A solo 25 g ai/ha): 0%
herbicidal activity ([11]; herbicide A solo 37.5 g ai/ha): 0%
herbicidal activity ([11]; herbicide A solo 50 g ai/ha): 0%
herbicidal activity ([11]; herbicide A solo 75 g ai/ha): 0%
herbicidal activity ([11]; herbicide A solo 100 g ai/ha): 0%
herbicidal activity ([11]; herbicide A solo 150 g ai/ha): 0%
herbicidal activity ([11]; herbicide A solo 200 g ai/ha): 0%
herbicidal activity ([11]; herbicide A solo 300 g ai/ha): 0%
herbicidal activity ([12]; herbicide A solo 25 g ai/ha): 50%
herbicidal activity ([12]; herbicide A solo 37.5 g ai/ha): 60%
herbicidal activity (AVEFA (Avena fatua) [13]; herbicide A solo 43.75 g ai/ha): 25%
herbicidal activity (AVEFA (Avena fatua) [13]; herbicide A solo 87.5 g ai/ha): 30%
herbicidal activity (AVEFA (Avena fatua) [13]; herbicide A solo 125 g ai/ha): 60%
herbicidal activity ([14]; herbicide A solo 43.75 g ai/ha): 0%
herbicidal activity ([14]; herbicide A solo 62.5 g ai/ha): 0%
herbicidal activity ([14]; herbicide A solo 87.5 g ai/ha): 0%
herbicidal activity ([14]; herbicide A solo 125 g ai/ha): 0%
herbicidal activity (STEME (Stellaria media) [15]; herbicide A solo 43.75 g ai/ha): 0%
herbicidal activity (STEME (Stellaria media) [15]; herbicide A solo 62.5 g ai/ha): 25%
herbicidal activity (STEME (Stellaria media) [15]; herbicide A solo 125 g ai/ha): 65%
herbicidal activity (STEME (Stellaria media) [15]; herbicide A solo 175 g ai/ha): 40%
herbicidal activity (STEME (Stellaria media) [15]; herbicide A solo 250 g ai/ha): 70%
herbicidal activity ([16]; herbicide A solo 50 g ai/ha): 50%
herbicidal activity ([16]; herbicide A solo 100 g ai/ha): 50%
herbicidal activity ([16]; herbicide A solo 150 g ai/ha): 50%
herbicidal activity (AVEFA (Avena fatua) [17]; herbicide A solo 37.5 g ai/ha): 0%
herbicidal activity (AVEFA (Avena fatua) [17]; herbicide A solo 50 g ai/ha): 0%
herbicidal activity (AVEFA (Avena fatua) [17]; herbicide A solo 75 g ai/ha): 20%
herbicidal activity (AVEFA (Avena fatua) [17]; herbicide A solo 150 g ai/ha): 40%
